Values of other authors, collected in article PMC5107951 (Scientific Reports, 2016).

System: GABA-A receptor
Details: cited from earlier work

Row | Substance | binding to GABA-A receptor (in words)
1 | α-conotoxin ImI | low affinity
2 | α-cobratoxin | also binds
